Measurements as given in PubChem BioAssay AID651639 (Sanford-Burnham Center for Chemical Genomics, 2012).
Active and inactive are the calls of the source. No rule for the calls is given here.

Molecular target: corticotropin-releasing factor-binding protein / CRF receptor 2 complex (human)
Test: blockers of CRF-binding protein–CRF-R2 complex – cell-based, uHTS hits, 384-well, dose response (AID 651639)
Details: CRF-BP/CRF-R2 complex antagonism, cell-based 384-well

IC50	Compound
9.4 µM	COc1ccc(C(C)=NNc2ccc([N+](=O)[O-])cc2S(=O)(=O)Nc2ccccc2C(=O)O)c(OC)c1
> 20 µM (inactive)	COC(=O)c1ccc(/C(O)=C(\C#N)c2nc3ccccc3s2)cc1
1 µM	CN1C(=O)C(N=Nc2ccc([N+](=O)[O-])cc2)SC1=S (stereo not given)
15.5 µM	Cc1ccc(-n2[nH]c(C)c(/C=N/Nc3ccc([N+](=O)[O-])cc3[N+](=O)[O-])c2=O)cc1
> 20 µM (inactive)	O=C(O)c1ccc(/C=N/Nc2cccc(C(F)(F)F)c2)cc1
> 20 µM (inactive)	Cc1ccc2nc(N3C(=O)C(O)=C(C(=O)c4ccco4)C3c3cccc(O)c3)sc2c1 (stereo not given)
11.3 µM	N#C/C(=C(/O)Cc1cccc2ccccc12)c1nc2ccccc2s1
> 20 µM (inactive)	O=C1N=c2ccccc2=C1c1sc(=S)n(NC(=O)c2cccc(O)c2)c1O
> 20 µM (inactive)	N#C/C(=C(/O)COc1ccc(Cl)cc1)c1nc2ccccc2s1
> 20 µM (inactive)	Cc1cc(=O)oc2c1ccc1oc(/C(=N/O)c3ccccc3)c(C)c12
> 20 µM (inactive)	CN1c2ccccc2C(O)=C(C(=S)Nc2ccc(Cl)cc2)S1(=O)=O
> 20 µM (inactive)	COc1ccc(/C=N/OCC(=O)N=Nc2c(O)[nH]c3ccc(Br)cc23)cc1
> 20 µM (inactive)	Cc1ccc(S(=O)(=O)N(CC(=O)N=Nc2c(O)[nH]c3ccccc23)c2ccc(C)c(C)c2)cc1
17.5 µM	O=[N+]([O-])c1cc(/C=N\O)ccc1Oc1ccc(F)cc1
10.4 µM	Cc1ccc2nc(N3C(=O)C(O)=C(C(=O)c4ccc(C)o4)C3c3cccc(O)c3)sc2c1 (stereo not given)
